In ChEMBL document CHEMBL1152162, “Coagulanolide, a withanolide from Withania coagulans fruits and antihyperglycemic activity” (2008):

Legend:
Assay type in all cases: functional
Mus musculus [1] = experiment: Antihyperglycemic activity in diabetic C57BL/KsJ-db/db mouse model assessed as decrease in low-density lipoprotein cholesterol at 50 mg/kg, po for 10 days relative to control; design: scale not given: the % may be the effect or the level left
Mus musculus [2] = experiment: Antihyperglycemic activity in po dosed diabetic C57BL/KsJ-db/db mouse model assessed as decrease in postprandial blood glucose level for 10 days; settings: 240 h
Mus musculus [3] = experiment: Antihyperglycemic activity in diabetic C57BL/KsJ-db/db mouse model assessed as improvement in glucose tolerance at 50 mg/kg, po for 10 days relative to control by OGTT
Mus musculus [4] = experiment: Antihyperglycemic activity in diabetic C57BL/KsJ-db/db mouse model assessed as decrease in total cholesterol at 50 mg/kg, po for 10 days relative to control; design: scale not given: the % may be the effect or the level left
Mus musculus [5] = experiment: Antihyperglycemic activity in diabetic C57BL/KsJ-db/db mouse model assessed as decrease in postprandial blood glucose level at 50 mg/kg, po for 10 days relative to control; design: scale not given: the % may be the effect or the level left
Mus musculus [6] = experiment: Antihyperglycemic activity in diabetic C57BL/KsJ-db/db mouse model assessed as decrease in blood glucose AUC at 50 mg/kg, po for 10 days relative to control; design: scale not given: the % may be the effect or the level left
Rattus norvegicus [7] = experiment: Antihyperglycemic activity in Sprague-Dawley normoglycemic rat model assessed as glucose tolerance at 100 mg/kg, po administered 30 mins before sucrose-load
Mus musculus [8] = experiment: Antihyperglycemic activity in diabetic C57BL/KsJ-db/db mouse model assessed as decrease in plasma triglyceride level at 50 mg/kg, po for 10 days relative to control; design: scale not given: the % may be the effect or the level left
Rattus norvegicus [9] = experiment: Antihyperglycemic activity in streptozotocin-induced diabetic Sprague-Dawley rat model assessed as glucose tolerance at 100 mg/kg, po administered 30 mins before sucrose-load
Mus musculus [10] = experiment: Antihyperglycemic activity in diabetic C57BL/KsJ-db/db mouse model assessed as increase in high-density lipoprotein cholesterol at 50 mg/kg, po for 10 days relative to control
Mus musculus [11] = experiment: Antihyperglycemic activity in diabetic C57BL/KsJ-db/db mouse model assessed as decrease in very low-density lipoprotein cholesterol at 50 mg/kg, po for 10 days relative to control; design: scale not given: the % may be the effect or the level left

| SMILES | Activity (Mus musculus [1]) [%] | ED50 (Mus musculus [2]) [mg/kg] | Activity (Mus musculus [3]) [%] | Activity (Mus musculus [4]) [%] | Activity (Mus musculus [5]) [%] | Activity (Mus musculus [6]) [%] | Activity (Rattus norvegicus [7]) [%] | Activity (Mus musculus [8]) [%] | Activity (Rattus norvegicus [9]) [%] | Activity (Mus musculus [10]) [%] | Activity (Mus musculus [11]) [%] |
| --- | --- | --- | --- | --- | --- | --- | --- | --- | --- | --- | --- |
| CC1=C(C)C(=O)O[C@@H]([C@](C)(O)[C@]2(O)CC[C@@]3(O)[C@@H]4CC=C5C[C@@H](O[C@@H]6O[C@H](CO)[C@@H](O)[C@H](O)[C@H]6O)CC(=O)[C@]5(C)[C@H]4CC[C@]23C)C1 | 21.2 | 25 | 44.1 | 25.7 | 22.7 | 40.5 | 29.8 | 14.7 | 23.3 | 24.7 | 15.6 |
| CC1=C(C)C(=O)O[C@@H]([C@](C)(O)[C@]2(O)CC[C@@]3(O)[C@@H]4CC=C5C=CCC(=O)[C@]5(C)[C@H]4CC[C@]23C)C1 |  |  |  |  |  |  | 20.4 |  | 15.8 |  |  |
| CC1=C(C)C(=O)O[C@@H]([C@](C)(O)[C@]2(O)C[C@H](O)[C@@]3(O)[C@@H]4CC=C5CC=CC(=O)[C@]5(C)[C@H]4CC[C@@]32C)C1 [COAGULANOLIDE] |  |  |  |  |  |  | 28.1 |  | 14.7 |  |  |
| CC1=C(C)C(=O)O[C@@H]([C@]2(C)O[C@@]34CC[C@]2(O)[C@@]3(C)CC[C@H]2[C@H]4CC=C3CC=CC(=O)[C@@]32C)C1 [COAGULIN C] |  |  |  |  |  |  | 22.8 |  | 16.9 |  |  |
| CC(C)OC(=O)C(C)(C)Oc1ccc(C(=O)c2ccc(Cl)cc2)cc1 [FENOFIBRATE] | 24.5 |  |  | 30.8 |  |  |  | 16.2 |  | 12.4 | 21.6 |
| CN(C)C(=N)NC(=N)N [METFORMIN] |  |  | 24.8 |  | 18.6 | 24.8 | 26.4 |  | 17.1 |  |  |
| CC1=C(C)C(=O)O[C@@H]([C@](C)(O)[C@]2(O)CC[C@@]3(O)[C@@H]4CC=C5CC=CC(=O)[C@]5(C)[C@H]4CC[C@]23C)C1 [WITHANOLIDE F] |  |  |  |  |  |  | 24.9 |  | 18.2 |  |  |
